Source: patent US20210346359A1, “Use of CFTR Modulators For Treating Cerebrovascular Conditions” (Qanatpharma AG, priority 2018, published 2021)
“Also recorded” adds a separate entry of the source.

What was measured:
[1] = tested on: human CFTR mRNA; assay: Quantitative PCR of CFTR mRNA in baby hamster kidney fibroblast cells stably expressing human CFTR; type: cell-based; details: 6 μmol/L, 24 h
Method: Procedures for isolating and culturing mesenteric artery smooth muscle cells were carried out as described in (10). Briefly, mesenteric artery segments were isolated, cut into small pieces and digested with trypsin, collagenase and elastase. The resulting cell suspension was washed several times in phosphate-buffered saline and plated in Dulbecco's Modified Eagle Medium (DMEM) culture media containing 10% fetal bovine serum and 1% penicillin-streptomycin. Cell cultures were maintained at 37° C. with 5% CO2 and split at 106 cells seeding density. […]
Resistance artery RNA was isolated with Norgen Biotek (Thorold, Canada) “Total RNA Purification Micro” spin columns, using the proteinase K digestion and DNA removal procedures, as directed by the manufacturer's instructions. The eluted RNA was quantified with an Agilent Technologies RNA 6000 Pico Kit and Bioanalyzer; the analysis confirmed that high-quality RNA was retrieved from the artery tissue samples (RNA Integrity [RIN]: Cerebral=8.4±0.1, n=5; Cremaster=8.2±0.4, n=6). […]
Quantitative FOR was performed using an Applied Biosystems ViiA™ 7 Real Time FCR system and Power SYBR® Green FCR master mix (both distributed by lnvitrogen Life Technologies). […] Gene targets were assessed in triplicate, using 1 ng of cDNA generated from the reverse transcription; negative controls received water. […]

[2] = target: CFTR (Mus musculus, UniProt P26361); assay: CFTR protein in cerebral arteries of mice with subarachnoid hemorrhage; type: in vivo; parameters: Cerebral artery lysates were prepared by grinding artery samples in lysis buffer; from tissue; host or cells: cerebral arteries of male wild-type C57BL/6N mice (naïve, heart failure or subarachnoid hemorrhage models); details: 2 days post-induction, 3 mg/kg daily for 2 days
Method: Western blots for CFTR were completed as previously described (12, 18). Cerebral artery lysates were prepared by grinding artery samples in lysis buffer containing 50 mM Tris (pH 7.3), 150 mM NaCl, 2 mM […], 0.1% Triton-X-100, 0.1% […] and protease inhibitors; the same lysis buffer was used to prepare cell culture lysates. Following lysis, the samples were centrifuged (10 minutes at 13,500 g; at 4° C.) to remove insoluble material. Immediately prior to polyacrylamide electrophoresis, additional SDS (to 2% final concentration), glycerol (to 2% final concentration), β-mercaptoethanol (to 2% final concentration) and dithiothreitol (2 mM final concentration) were added. Proteins were separated electrophoretically on 7% acrylamide gels and transferred onto polyvinylidene difluoride (PVDF) membranes. […]
The primary antibodies were conjugated with either peroxidase-labeled donkey anti-rabbit IgG (GE Healthcare Amersham (Piscataway, USA) cat# NA934) or peroxidase-labeled goat anti-mouse IgG (GE Healthcare Amersham cat# NA931) secondary antibodies. […] Developed films were evaluated densitometrically using “Image J” software (freely available from the NIH); digital images were evaluated with Image Lab software (Bio-Rad). […]

[3] = tested on: CFTR mRNA; assay: Quantitative PCR of CFTR mRNA in cerebral arteries of naïve mice treated in vivo; parameters: species or system mouse; details: 3 mg/kg daily for 2 days, vs vehicle controls
Description: Resistance artery RNA was isolated with Norgen Biotek (Thorold, Canada) “Total RNA Purification Micro” spin columns, using the proteinase K digestion and DNA removal procedures, as directed by the manufacturer's instructions. The eluted RNA was quantified with an Agilent Technologies RNA 6000 Pico Kit and Bioanalyzer; the analysis confirmed that high-quality RNA was retrieved from the artery tissue samples (RNA Integrity [RIN]: Cerebral=8.4±0.1, n=5; Cremaster=8.2±0.4, n=6). Isolation of RNA from Baby Hamster Kidney fibroblast cells followed the same procedure, with the omission of the proteinase K digestion step. […]
Quantitative FOR was performed using an Applied Biosystems ViiA™ 7 Real Time FCR system and Power SYBR® Green FCR master mix (both distributed by lnvitrogen Life Technologies). […] Gene targets were assessed in triplicate, using 1 ng of cDNA generated from the reverse transcription; negative controls received water. […] Transcript expression levels in mouse tissues were calculated from the DCt values relative to the standard housekeeping gene hydroxymethylbilane synthase (HMBS). To confirm that HMBS was reliable for normalization, transcript expression levels were also calculated from the DCt values relative to glucose-6-phosphate dehydrogenase (G6PD), which returned similar results. […]

CFTR, sequence (P26361 whole entry): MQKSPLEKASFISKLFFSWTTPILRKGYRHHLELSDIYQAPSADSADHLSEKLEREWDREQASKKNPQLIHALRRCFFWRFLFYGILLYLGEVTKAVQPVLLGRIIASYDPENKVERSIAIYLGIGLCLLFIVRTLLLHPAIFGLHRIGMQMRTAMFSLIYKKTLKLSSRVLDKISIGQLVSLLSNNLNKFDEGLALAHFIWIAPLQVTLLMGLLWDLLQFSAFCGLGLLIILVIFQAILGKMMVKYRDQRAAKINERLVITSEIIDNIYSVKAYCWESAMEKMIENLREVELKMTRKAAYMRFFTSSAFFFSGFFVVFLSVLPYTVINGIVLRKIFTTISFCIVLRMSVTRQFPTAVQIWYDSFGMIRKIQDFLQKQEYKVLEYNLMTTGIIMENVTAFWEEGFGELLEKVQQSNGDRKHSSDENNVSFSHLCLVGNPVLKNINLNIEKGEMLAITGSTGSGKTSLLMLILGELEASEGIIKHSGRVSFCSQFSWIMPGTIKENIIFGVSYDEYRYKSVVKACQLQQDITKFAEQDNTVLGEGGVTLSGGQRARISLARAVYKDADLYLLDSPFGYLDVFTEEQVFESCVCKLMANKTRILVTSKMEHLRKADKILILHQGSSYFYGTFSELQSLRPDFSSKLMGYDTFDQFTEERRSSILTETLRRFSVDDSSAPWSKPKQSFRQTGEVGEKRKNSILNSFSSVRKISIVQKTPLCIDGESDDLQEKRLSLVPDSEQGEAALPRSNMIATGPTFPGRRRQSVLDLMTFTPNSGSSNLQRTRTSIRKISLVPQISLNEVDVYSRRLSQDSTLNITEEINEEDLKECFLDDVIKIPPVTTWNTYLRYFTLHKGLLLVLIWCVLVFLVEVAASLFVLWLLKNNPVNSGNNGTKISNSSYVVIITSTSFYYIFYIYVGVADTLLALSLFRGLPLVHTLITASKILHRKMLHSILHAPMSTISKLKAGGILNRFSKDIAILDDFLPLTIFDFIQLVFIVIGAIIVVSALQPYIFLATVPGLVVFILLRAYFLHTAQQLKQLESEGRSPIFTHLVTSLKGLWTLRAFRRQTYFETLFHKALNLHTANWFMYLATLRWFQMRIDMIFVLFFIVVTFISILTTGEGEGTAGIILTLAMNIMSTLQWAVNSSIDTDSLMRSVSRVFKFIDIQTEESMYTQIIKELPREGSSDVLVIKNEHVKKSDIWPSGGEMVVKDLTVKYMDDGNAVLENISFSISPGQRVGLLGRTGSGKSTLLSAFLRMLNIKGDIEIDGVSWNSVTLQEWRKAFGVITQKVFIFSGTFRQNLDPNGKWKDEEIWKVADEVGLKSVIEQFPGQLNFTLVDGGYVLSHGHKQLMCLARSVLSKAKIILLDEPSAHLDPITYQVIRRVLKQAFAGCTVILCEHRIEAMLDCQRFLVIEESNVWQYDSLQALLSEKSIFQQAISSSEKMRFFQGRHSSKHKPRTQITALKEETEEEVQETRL

O=C(Nc1ncc(C(c2ccccc2Cl)N2CCC(O)C2)s1)C1(c2ccc3c(c2)OCO3)CC1 (stereo not drawn) [C18, 1-(benzo[d][1,3]dioxol-5-yl)-N-(5-((2-chlorophenyl)(3-hydroxypyrrolidin-1-yl)methyl)thiazol-2-yl)cyclopropanecarboxamide]
CFTR mRNA expression [1]: no affect; also recorded: does not influence
cerebral artery CFTR protein expression in SAH [2]: restores; also recorded: eliminates this reduction
cerebral artery CFTR mRNA expression [3]: not affected; also recorded: does not influence

Cc1ccc(NC(=O)C2(c3ccc4c(c3)OC(F)(F)O4)CC2)nc1-c1cccc(C(=O)O)c1 [lumacaftor]
CFTR mRNA expression [1]: unaffected; also recorded: does not influence
cerebral artery CFTR protein expression in SAH [2]: restores; also recorded: eliminates this reduction
cerebral artery CFTR mRNA expression [3]: unaffected; also recorded: does not influence
